Results: BindingDB's records for doi:10.1021/acs.biochem.5b00221 (Dalhousie University, 2015)

Biological target: T1, Mandelate racemase (Pseudomonas putida, UniProt P11444)
T1 sequence (P11444 whole entry): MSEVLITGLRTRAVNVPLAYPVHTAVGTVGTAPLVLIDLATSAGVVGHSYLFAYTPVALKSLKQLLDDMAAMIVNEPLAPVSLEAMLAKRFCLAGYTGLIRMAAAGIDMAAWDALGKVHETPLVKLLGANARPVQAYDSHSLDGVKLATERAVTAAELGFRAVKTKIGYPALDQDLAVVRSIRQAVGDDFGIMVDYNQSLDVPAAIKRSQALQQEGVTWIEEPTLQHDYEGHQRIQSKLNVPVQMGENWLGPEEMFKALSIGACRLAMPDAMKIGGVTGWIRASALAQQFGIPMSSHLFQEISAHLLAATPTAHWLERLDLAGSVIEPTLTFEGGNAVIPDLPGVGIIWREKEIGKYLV
Experiment: Circular Dichroism (CD) Based Assays
Conditions: pH 7.5
Procedure: MR activity was assayed using a CD-based assay by following the change in ellipticity of mandelate at 262 nm using a thermostated quartz cuvette with a 1-cm light path (unless otherwise indicated) as described by Sharp et al. Allassays (total volume of 2 mL) were conducted at 25 °C in Na+ HEPES buffer (0.1 M, pH 7.5) containing MgCl2 (3.3 mM), BSA [0.005% (w/v)], and (R)-mandelate as the substrate. The concentration of MR was determined from its absorbance at 280 nm using an extinction coefficient of 53400 M^−1 cm^−1.

Row | SMILES | Ki
1 | O=C(O)C(=O)CF [3-fluoro-2-oxopropanoate] | 1300 µM
2 | O=C(O)C(=O)C(=O)O [Mesoxalate] | 1800 µM
